Numbers after ± are expanded uncertainties.
How the values were obtained:
[1] = xn = mol fraction of the nth substance listed; conditions: 101 kPa, Liquid
[2] = 101 kPa, Liquid

OCCCO [propan-1,3-diol] + OCC(O)CO
mass density [kg/m3], [1]
Conditions	x2 = 0	x2 = 0.0841	x2 = 0.1712	x2 = 0.2615	x2 = 0.3552	x2 = 0.4524	x2 = 0.5534	x2 = 0.6585	x2 = 0.7677	x2 = 0.8815
298.15 K	1049.9 ± 1.6	1067.8 ± 1.7	1086.4 ± 1.7	1105.7 ± 1.7	1125.6 ± 1.7	1146.4 ± 1.8	1167.6 ± 1.8	1189.3 ± 1.8	1212.6 ± 1.9	1235.2 ± 1.9
303.15 K	1047 ± 1.7	1065 ± 1.7	1083.5 ± 1.8	1103 ± 1.8	1122.8 ± 1.8	1143.4 ± 1.8	1164.6 ± 1.9	1186.4 ± 1.9	1209 ± 1.9	1232.1 ± 2
308.15 K	1044.1 ± 1.8	1062 ± 1.8	1080.6 ± 1.8	1100 ± 1.8	1119.8 ± 1.9	1140.6 ± 1.9	1161.8 ± 1.9	1183.5 ± 2	1206.1 ± 2	1229.3 ± 2
313.15 K	1040.8 ± 1.8	1058.8 ± 1.9	1077.5 ± 1.9	1096.9 ± 1.9	1116.8 ± 1.9	1137.3 ± 2	1158.7 ± 2	1180.4 ± 2	1203 ± 2.1	1226.1 ± 2.1
318.15 K	1037.8 ± 1.9	1055.7 ± 1.9	1074.5 ± 1.9	1093.9 ± 2	1113.7 ± 2	1134.3 ± 2	1155.6 ± 2.1	1177.2 ± 2.1	1199.7 ± 2.1	1222.8 ± 2.2
323.15 K	1034.8 ± 2	1052.7 ± 2	1071.4 ± 2	1090.9 ± 2	1110.7 ± 2.1	1131.2 ± 2.1	1152.5 ± 2.1	1174.1 ± 2.2	1196.6 ± 2.2	1219.8 ± 2.2
328.15 K	1031.4 ± 2	1049.3 ± 2	1068.1 ± 2.1	1087.6 ± 2.1	1107.5 ± 2.1	1127.8 ± 2.2	1149.2 ± 2.2	1170.8 ± 2.2	1193.4 ± 2.3	1216.6 ± 2.3
333.15 K	1028.2 ± 2.1	1046.1 ± 2.1	1064.9 ± 2.1	1084.4 ± 2.2	1104.1 ± 2.2	1124.6 ± 2.2	1145.9 ± 2.3	1167.5 ± 2.3	1190 ± 2.3	1213.3 ± 2.4

CCCO [propan-1-ol]
[2]
Conditions	mass density [kg/m3]
298.15 K	799.6 ± 1.2
303.15 K	795.5 ± 1.2
308.15 K	791.5 ± 1.3
313.15 K	787.3 ± 1.3
318.15 K	783.3 ± 1.4
323.15 K	779 ± 1.4
328.15 K	774.9 ± 1.5
333.15 K	770.8 ± 1.6

CCCO [propan-1-ol] + OCC(O)CO
[1], x2 = 0
Conditions	mass density [kg/m3]
298.15 K	799.6 ± 1.2
303.15 K	795.5 ± 1.2
308.15 K	791.5 ± 1.3
313.15 K	787.3 ± 1.3
318.15 K	783.3 ± 1.4
323.15 K	779 ± 1.4
328.15 K	774.9 ± 1.5
333.15 K	770.8 ± 1.6

CC(C)O [propan-2-ol]
[2]
Conditions	mass density [kg/m3]
298.15 K	780.6 ± 1.2
303.15 K	776.6 ± 1.2
308.15 K	772.3 ± 1.3
313.15 K	767.9 ± 1.3
318.15 K	763.3 ± 1.3
323.15 K	758.6 ± 1.4
328.15 K	753.8 ± 1.4
333.15 K	748.9 ± 1.5

CC(C)O [propan-2-ol] + OCC(O)CO
[1], x2 = 0
Conditions	mass density [kg/m3]
298.15 K	780.6 ± 1.2
303.15 K	776.6 ± 1.2
308.15 K	772.3 ± 1.3
313.15 K	767.9 ± 1.3
318.15 K	763.3 ± 1.3
323.15 K	758.6 ± 1.4
328.15 K	753.8 ± 1.4
333.15 K	748.9 ± 1.5
